Measurements taken from patent US11541056B2, “3-hydroxy-N-(3-(7H-pyrrolo[2,3-d]pyrimidin-4-yl)phenyl)pyrrolidine-1-carboxamide derivatives” (NOVARTIS AG, priority 2018, dated 2023).

Legend:
Type in all cases: cell-based
[1] = test system: TMD8 cells; assay: Resazurin cell viability assay in DLBCL cells (TMD8); conditions: Homo sapiens, TMD8, 72 h, TMD8 cells (BTK dependent), 50% growth inhibition, read-out: TMD8 Prol GI50
Procedure: (§1) Compounds of the invention were tested in the following cellular assays. The terms in Table 1 are defined as follows: DC50 refers to the concentration at which 50% maximal degradation was observed; deg Amax is the extent of degradation and the value refers to the % protein remaining at the concentration at which maximum degradation is seen; Prol GI50 refers to the proliferation data and defines the concentration at which 50% growth inhibition was observed compared to the vehicle treated control at the end of the incubation time. TMD8 cells are BTK dependent and OCI-LY3 cells are BTK independent.
(§2) Cell Viability Assay in DLBCL (Diffuse Large B-Cell Lymphoma) Cells:
(§3) The effect of the BTK compounds on cell proliferation was measured by a Resazurin (Sigma, #R7017) based cell viability assay. TMD8 (BTK compound sensitive) and OCI-LY3 (BTK compound insensitive) cells were incubated for 72 h at 37° C. and 5% CO2 with the corresponding compound. Resazurin is a non-toxic, cell-permeable substrate that is virtually non-fluorescent. Upon entering living cells, Resazurin (Sigma, #R7017) is reduced to highly fluorescent Resorufin. The metabolic activity was assessed by measuring the fluorescence signal (ex. 530 nm; em. 600 nm).
(§4) TMD8 and OCI-Ly3 cells were seeded at day 0 in triplicates at a cell density of 1×10^4 cells per 150 μl/well in a 96-well plate (Costar #3904). Additional plates were prepared, in order to assess the basal metabolic activity of both cell lines at the beginning of the experiment. For these reference plates, Resazurin (Sigma, #R7017) was added to a final concentration of 13 μg/ml 3 h post seeding and was incubated for 2 h at 37° C. and 5% CO2. Following incubation, the fluorescent signal intensity of the 96-well plates was measured on a Mithras LB940 multimode plate reader at 530/600 nm (Berthold Technologies, Germany).
(§5) In parallel, 3 h post-seeding, test-plates were treated with compound at various concentrations, or with vehicle (DMSO) alone for 3 days. The compound addition to the plates was performed by using a HP D300 digital dispenser (TECAN, Switzerland). The compounds were tested in triplicate, 8-point serial dilution (1:4), with a start concentration of 10 μM for OCI-LY3 and 1 μM for the TMD8 cells, respectively. To assess the relative proliferation of the cells, Resazurin was added to each well directly to the medium to a final concentration of 13 μg/ml. The plates were incubated for 2 h at 37° C. and 5% CO2 to result in a 72 h endpoint. Following incubation, the fluorescent signal intensity of the 96-well plates were measured on a Mithras LB940 multimode plate reader at 530/600 nm (Berthold Technologies, Germany). The formation of Resorufin dye directly correlates with the number of metabolically active cells. For each triplicate treatment the mean and standard deviation were calculated and analyzed via curve fitting software to determine the respective compound concentration resulting in 50% growth inhibition (GI50) values. For each compound GI50 values were typically determined from at least 2 entirely independent experiments.
TMD8 cells were acquired through a license agreement with Tokyo Medical and Dental University, Japan. Cells are cultivated in MEM Alpha (BioConcept, #1-23F01-I, lot. LB04262P) supplemented with 10% FCS (HyClone, GE #SH30066.03, lot AB217603), 2 mM L-Glutamine (BioConcept, #5-10K50-H, lot. LA03467P), 1% Pen/Strep (BioConcept, #4-01F00-H, lot. LB04235P).

[2] = test system: OCI-LY3 cells; assay: Resazurin cell viability assay in DLBCL cells (OCI-LY3); conditions: Homo sapiens, OCI-Ly3, 72 h, OCI-LY3 cells (BTK independent), 50% growth inhibition, read-out: OCI-LY3 Prol GI50
Procedure: as §1, §2, §3, §4, §5
OCI-LY3 cells were acquired through a license agreement with University Health Network, Toronto, Canada. Cells are cultivated in RPMI1640 media (Gibco, #61870-010, lot. 1894759), supplemented with 10% FCS (HyClone, GE #SH30066.03, lot AB217603), 2 mM L-Glutamine (BioConcept, #5-10K50-H, lot. LA03467P), 1 mM Sodium Pyruvate (BioConcept, #5-60F00-H, lot. LB10510P), 10 mM HEPES (Gibco, #15630-056, lot. 1854074), 1% Pen/Strep (BioConcept, #4-01F00-H, lot. LB04235P).

[3] = target: T1, BTK-GFP (Homo sapiens, UniProt Q06187+Q96SW2); assay: BTK-GFP protein abundance flow cytometry assay in HEK293A cells; conditions: 24 h; for BTK deg Amax %: % protein remaining at concentration of maximum degradation; for DC50: concentration at which 50% maximal degradation was observed
T1 construct: the BTK open reading frame (ORF) was first shuttled from a pcDNA-DEST40-BTK vector (Invitrogen library ID INV_20090504v1); expressed in transfected cells; host or cells: HEK293A cells (Invitrogen R70507), lentiviral transduction with pLenti6-BTK-GFP-Ires-RFP, blasticidin-selected
T1 sequence (Q06187 whole entry): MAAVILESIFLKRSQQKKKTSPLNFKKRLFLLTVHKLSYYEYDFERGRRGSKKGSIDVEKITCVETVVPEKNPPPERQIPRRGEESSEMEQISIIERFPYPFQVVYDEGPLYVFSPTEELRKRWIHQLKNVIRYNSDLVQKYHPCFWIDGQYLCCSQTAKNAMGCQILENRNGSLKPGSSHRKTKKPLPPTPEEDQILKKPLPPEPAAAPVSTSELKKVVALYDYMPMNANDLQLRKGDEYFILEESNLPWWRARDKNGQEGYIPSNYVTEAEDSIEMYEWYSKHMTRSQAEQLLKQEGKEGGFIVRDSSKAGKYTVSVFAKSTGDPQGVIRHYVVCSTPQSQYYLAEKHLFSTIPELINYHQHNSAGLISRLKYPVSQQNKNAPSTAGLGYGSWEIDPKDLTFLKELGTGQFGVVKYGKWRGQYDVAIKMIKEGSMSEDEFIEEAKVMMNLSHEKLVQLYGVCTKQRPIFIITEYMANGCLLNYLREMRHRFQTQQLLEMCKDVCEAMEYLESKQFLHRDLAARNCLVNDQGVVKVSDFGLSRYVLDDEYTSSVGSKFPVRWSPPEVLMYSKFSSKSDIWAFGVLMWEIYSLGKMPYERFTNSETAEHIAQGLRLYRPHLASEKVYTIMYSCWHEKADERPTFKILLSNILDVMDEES
T1 sequence (Q96SW2 whole entry): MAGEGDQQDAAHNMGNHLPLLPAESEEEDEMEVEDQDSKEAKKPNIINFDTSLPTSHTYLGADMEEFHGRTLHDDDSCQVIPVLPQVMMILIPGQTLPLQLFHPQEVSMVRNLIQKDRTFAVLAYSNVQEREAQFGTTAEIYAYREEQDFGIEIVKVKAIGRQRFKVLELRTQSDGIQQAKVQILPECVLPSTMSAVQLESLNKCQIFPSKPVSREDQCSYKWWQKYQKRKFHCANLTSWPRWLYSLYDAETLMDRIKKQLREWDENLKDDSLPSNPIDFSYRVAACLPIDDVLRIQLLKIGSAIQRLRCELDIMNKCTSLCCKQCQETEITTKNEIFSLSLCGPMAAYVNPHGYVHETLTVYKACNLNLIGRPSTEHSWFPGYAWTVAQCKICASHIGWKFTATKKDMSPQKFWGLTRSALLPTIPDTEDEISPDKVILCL
T1 sequence (Q16531 whole entry partner): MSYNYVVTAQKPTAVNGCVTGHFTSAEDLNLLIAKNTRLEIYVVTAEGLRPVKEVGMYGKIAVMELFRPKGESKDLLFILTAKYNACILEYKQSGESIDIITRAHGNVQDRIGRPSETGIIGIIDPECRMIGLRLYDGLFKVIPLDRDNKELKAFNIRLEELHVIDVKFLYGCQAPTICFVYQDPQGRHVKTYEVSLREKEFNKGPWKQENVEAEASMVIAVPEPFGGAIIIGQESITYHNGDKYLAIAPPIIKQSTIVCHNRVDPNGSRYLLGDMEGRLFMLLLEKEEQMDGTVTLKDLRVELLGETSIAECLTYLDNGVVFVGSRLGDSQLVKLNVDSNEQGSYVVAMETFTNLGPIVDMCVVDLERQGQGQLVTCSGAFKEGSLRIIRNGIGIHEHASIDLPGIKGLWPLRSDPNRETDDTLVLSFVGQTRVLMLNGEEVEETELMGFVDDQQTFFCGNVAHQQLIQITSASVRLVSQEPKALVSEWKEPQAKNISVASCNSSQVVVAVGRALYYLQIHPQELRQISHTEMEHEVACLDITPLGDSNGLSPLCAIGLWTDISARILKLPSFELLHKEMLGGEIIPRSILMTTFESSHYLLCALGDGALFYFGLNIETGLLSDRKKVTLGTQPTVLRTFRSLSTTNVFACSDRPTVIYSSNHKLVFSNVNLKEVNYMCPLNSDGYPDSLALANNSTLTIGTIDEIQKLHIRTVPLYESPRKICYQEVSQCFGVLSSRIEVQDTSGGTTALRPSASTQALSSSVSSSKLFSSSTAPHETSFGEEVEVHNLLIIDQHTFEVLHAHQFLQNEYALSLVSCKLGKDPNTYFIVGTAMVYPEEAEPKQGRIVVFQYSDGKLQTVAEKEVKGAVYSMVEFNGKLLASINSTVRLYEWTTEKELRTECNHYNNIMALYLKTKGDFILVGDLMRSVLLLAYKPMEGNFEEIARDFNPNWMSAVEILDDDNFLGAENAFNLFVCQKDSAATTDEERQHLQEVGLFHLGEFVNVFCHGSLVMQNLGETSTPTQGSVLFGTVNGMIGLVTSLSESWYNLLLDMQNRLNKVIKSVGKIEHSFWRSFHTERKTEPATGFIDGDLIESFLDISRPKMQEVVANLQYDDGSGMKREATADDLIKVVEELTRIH
Procedure: as §1
BTK-GFP and IKZF3-GFP Protein Abundance Flow Cytometry Assay in HEK293A Cells:
Degradation of BTK or IKZF3 was measured in HEK293A cells (Invitrogen R70507) expressing either BTK-GFP and RFP or IKZF3-GFP and RFP from a stably integrated bicistronic BTK-GFP-iresRFP or IKZF3-GFP-iresRFP construct, respectively. Reduction of the GFP signal measured by flow cytometry served as readout for BTK or IKZF3 degradation after degrader treatment.
Stable HEK293A-BTK-GFP-iresRFP cells were maintained in complete growth medium (DMEM high Glucose+10% FCS+1% L-Glutamine+1% NEAA+1% NaPyr.) with passaging performed twice per week. On Day 0, HEK293A-BTK-GFP-iresRFP or HEK293A-IKZF3-GFP-iresRFP and HEK293A-iresRFP cells were seeded at 10,000 cells/well in a 96-well microtiter plate in 260 μl complete medium. On Day 1, cells were treated in duplicate with 10-point 1:3 dilution series of compound using the HP D300 Digital Dispenser (Tecan). DMSO concentrations were normalized across the plate to 0.1%. On Day 2, after 24 h of incubation at 37° C., treatment media was discarded, cells rinsed with 100 ul/well PBS and then detached using 40 ul trypsin/well for 5 min. Trypsin was neutralized with 100 ul/well PBS+20% FCS). Flow cytometry was performed on the samples using the BD FACS CANTO II (Becton Dickinson). Cell identification was then performed using forward (FSC) vs. side scatter (SSC) plots. Single cell discrimination is performed using SSC-Width (SSC-W) vs. SSC-Height (SSC-H) plots. Median GFP values for 5,000 single cells are used to determine BTK levels. Median GFP values from HEK293A-iresRFP are used as a background signal and thus defining 0% BTK signal. Median GFP values from DMSO treated HEK293A-BTK-GFP-iresRFP or HEK293A-IKZF3-GFP-iresRFP are used to define 100% BTK signal for subsequent DC50 curves (concentration at 50% BTK degradation). GFP and RFP are read in the channels called FITC and PE, respectively.
Concentration response curves plotting relative reduction of the GFP signal (measured by flow cytometry) versus 10 compound concentrations (starting concentration 10 μM, 3 fold dilution steps) of the compounds allowed generation of DC50 values.

| SMILES | GI50 [1] | GI50 [2] | BTK deg Amax % [3] | DC50 [3] |
| --- | --- | --- | --- | --- |
| COc1ccc(C(=O)N2CCC3(CCN(CCc4ccc(-c5cc6c(-c7ccc(F)c(NC(=O)N8C[C@H](CC(C)C)[C@@H](O)C8)c7C)ncnc6[nH]5)cc4)CC3)CC2)cc1N1CCC(=O)NC1=O [Compound 17, (3R,4S)—N-(3-(6-(4-(2-(9-(3-(2,4-dioxotetrahydropyrimidin-1(2H)-yl)-4-methoxybenzoyl)-3,9-diazaspiro[5.5]undecan-3-yl)ethyl)phenyl)-7H-pyrrolo[2,3-d]pyrimidin-4-yl)-6-fluoro-2-methylphenyl)-3-hydroxy-4-isobutylpyrrolidine-1-carboxamide] | 0.49 nM | > 10000 nM | 4% | 5.5 nM |
| COc1ccc(C(=O)N2CCC(CCN3CCC(OCc4ccc(-c5cc6c(-c7cc(F)cc(NC(=O)N8C[C@@H](CC(C)C)[C@H](O)C8)c7C)ncnc6[nH]5)cc4)CC3)CC2)cc1N1CCC(=O)NC1=O [Compound 21, (3S,4R)—N-(3-(6-(4-(((1-(2-(1-(3-(2,4-Dioxotetrahydropyrimidin-1 (2H)-yl)-4-methoxybenzoyl)piperidin-4-yl)ethyl)piperidin-4-yl)oxy)methyl)phenyl)-7H-pyrrolo[2,3-d]pyrimidin-4-yl)-5-fluoro-2-methylphenyl)-3-hydroxy-4-isobutylpyrrolidine-1-carboxamide] | 1.17 nM | 3600 nM | 4% | 15.6 nM |
| COc1ccc(C(=O)N2CCC(CCN3CCC(Oc4ccc(-c5cc6c(-c7cc(F)cc(NC(=O)N8C[C@H](CC(C)C)[C@@H](O)C8)c7C)ncnc6[nH]5)cc4)CC3)CC2)cc1N1CCC(=O)NC1=O [Compound 3, (3R,4S)—N-(3-(6-(4-((1-(2-(1-(3-(2,4-Dioxotetrahydropyrimidin-1(2H)-yl)-4-methoxybenzoyl)piperidin-4-yl)ethyl)piperidin-4-yl)oxy)phenyl)-7H-pyrrolo[2,3-d]pyrimidin-4-yl)-5-fluoro-2-methylphenyl)-3-hydroxy-4-isobutylpyrrolidine-1-carboxamide] | 0.19 nM | 4480 nM | 3% | 0.8 nM |
| COc1ccc(C(=O)N2CCC(CN3CCN(Cc4ccc(-c5cc6c(-c7cc(F)cc(NC(=O)N8CC(O)C(CC(C)C)C8)c7C)ncnc6[nH]5)cc4)CC3)CC2)cc1N1CCC(=O)NC1=O (racemic) [Compound 9, (cis-rac)-N-(3-(6-(4-((4-((1-(3-(2,4-Dioxotetrahydropyrimidin-1 (2H)-yl)-4-methoxybenzoyl)piperidin-4-yl)methyl)piperazin-1-yl)methyl)phenyl)-7H-pyrrolo[2,3-d]pyrimidin-4-yl)-5-fluoro-2-methylphenyl)-3-hydroxy-4-isobutylpyrrolidine-1-carboxamide] | 0.75 nM | 7150 nM | 6.3% | 1.7 nM |
| COc1ccc(C(=O)N2CCC(CN3CCC(COc4ccc(-c5cc6c(-c7cc(F)cc(NC(=O)N8C[C@H](CC(C)C)[C@@H](O)C8)c7C)ncnc6[nH]5)cc4)CC3)CC2)cc1N1CCC(=O)NC1=O [Compound 14, (3R,4S)—N-(3-(6-(4-((1-((1-(3-(2,4-Dioxotetrahydropyrimidin-1 (2H)-yl)-4-methoxybenzoyl)piperidin-4-yl)methyl)piperidin-4-yl)methoxy)phenyl)-7H-pyrrolo[2,3-d]pyrimidin-4-yl)-5-fluoro-2-methylphenyl)-3-hydroxy-4-isobutylpyrrolidine-1-carboxamide] | 0.24 nM | 3820 nM | 3.4% | 0.7 nM |
| COc1ccc(C(=O)N2CCC(OCCN3CCC(Oc4ccc(-c5cc6c(-c7cc(F)cc(NC(=O)N8C[C@H](CC(C)C)[C@@H](O)C8)c7C)ncnc6[nH]5)cc4)CC3)CC2)cc1N1CCC(=O)NC1=O [Compound 20, (3R,4S)—N-(3-(6-(4-((1-(2-((1-(3-(2,4-Dioxotetrahydropyrimidin-1(2H)-yl)-4-methoxybenzoyl)piperidin-4-yl)oxy)ethyl)piperidin-4-yl)oxy)phenyl)-7H-pyrrolo[2,3-d]pyrimidin-4-yl)-5-fluoro-2-methylphenyl)-3-hydroxy-4-isobutylpyrrolidine-1-carboxamide] | 0.29 nM | 3700 nM | 2.4% | 1.1 nM |
| CCOc1ccc(C(=O)N2CCC3(CCN(CCc4ccc(-c5cc6c(-c7cc(F)cc(NC(=O)N8C[C@H](CC(C)C)[C@@H](O)C8)c7C)ncnc6[nH]5)cc4)CC3)CC2)cc1N1CCC(=O)NC1=O [Compound 16, (3R,4S)—N-(3-(6-(4-(2-(9-(3-(2,4-dioxotetrahydropyrimidin-1(2H)-yl)-4-ethoxybenzoyl)-3,9-diazaspiro[5.5]undecan-3-yl)ethyl)phenyl)-7H-pyrrolo[2,3-d]pyrimidin-4-yl)-5-fluoro-2-methylphenyl)-3-hydroxy-4-isobutylpyrrolidine-1-carboxamide] | 0.26 nM | 5220 nM | 19% | 4.7 nM |
